Measurements reported in PMC9646841, “A bead-based GPCR phosphorylation immunoassay for high-throughput ligand profiling and GRK inhibitor screening” (Communications Biology, 2022).
Where “and” joins values, the source holds several entries; their conditions need not be identical. Identical values can stand only once. Like-named read-outs stand apart in the source and are kept apart here.

Columns and labels:
[1] = test system: MOP (GIRK2 channel activation); assay: GIRK channel membrane potential assay (G protein signaling); type: cell-based, mouse; conditions: for values normalised to 1µM DAMGO, mean: mean of replicates; for values normalised to 1µM DAMGO (individual values): single replicate values
Protocol: To analyze Gi signaling, changes in membrane potential produced by activation of G protein-gated inwardly rectifying potassium channel (GIRK) were measured as previously described[50],[51]. HEK293 cells were stably transfected with HA-MOP and GFP-conjugated GIRK2 channel plasmids (OriGene). The cells were then seeded in 96-well plates and allowed to grow at 37 °C in 5% CO2 for 48 h. […] A membrane potential dye (FLIPR Membrane Potential kit BLUE, Molecular Devices R8034) was reconstituted according to the manufacturer’s instructions. To each well, 90 μl of the HBSS/HEPES buffer solution and an equal volume of the membrane potential dye were added to a final volume of 180 μl per well. The cells were then incubated at 37 °C for 45 min. Test compounds were prepared in buffer solution containing HBSS and 20 mM HEPES solution (pH 7.4) at tenfold the final concentration to be measured. […] Baseline readings were taken every 1.8 s for 1 min. […] The change in dye fluorescence was recorded for 240 s with SoftMax Pro 5.4 software. Peak fluorescence values were obtained after subtraction of baseline readings for each sample and then used to calculate concentration–response curves using Origin.

MOP, GRK2 = MOP, GRK2 (Mus musculus, UniProt P42866); conditions: for GRK2 recruitment, normalised: normalized to 10 µM DAMGO
Protocol: Agonist-dependent binding of GRK2/3 and arrestin1/2 to a MOP was determined using a β-galactosidase complementation assay as previously described[47]. […] Cells were plated in 48-well plates and grown for 48 h. After 60 min of agonist exposure, a cell lysis reagent was added, and luminescence was recorded with a FlexStation 3 microplate reader (Molecular Devices).

CB2 cannabinoid receptor [2] = biological target: T1, CB2 cannabinoid receptor (Homo sapiens, UniProt P34972); assay: pS335/pS336-CB2 7TM phosphorylation assay; type: cell-based; conditions: for pS335/pS336 (CB2 Phosphorylation Assay): raw duplicate readings
T1 construct: host or cells: HEK293 (CB2-HEK293)

CB2 cannabinoid receptor [3] = biological target: T1, CB2 cannabinoid receptor; assay: pT338/pT339-CB2 7TM phosphorylation assay; type: cell-based; conditions: for pT338/pT339-CB2 phosphorylation (OD405): raw duplicate readings
MOP = biological target: T2, MOP (Mus musculus, UniProt P42866); assay: [3H]DAMGO saturation binding, MOP-HEK293 membranes
T2 construct: host or cells: HEK293 (Control-HEK293 or GRK-knockout clones), stably transfected

WT-HEK293 cells = assay: [3H]DAMGO saturation binding, WT-HEK293 (native) membranes

Sequence of MOP, GRK2 (P25098 whole entry): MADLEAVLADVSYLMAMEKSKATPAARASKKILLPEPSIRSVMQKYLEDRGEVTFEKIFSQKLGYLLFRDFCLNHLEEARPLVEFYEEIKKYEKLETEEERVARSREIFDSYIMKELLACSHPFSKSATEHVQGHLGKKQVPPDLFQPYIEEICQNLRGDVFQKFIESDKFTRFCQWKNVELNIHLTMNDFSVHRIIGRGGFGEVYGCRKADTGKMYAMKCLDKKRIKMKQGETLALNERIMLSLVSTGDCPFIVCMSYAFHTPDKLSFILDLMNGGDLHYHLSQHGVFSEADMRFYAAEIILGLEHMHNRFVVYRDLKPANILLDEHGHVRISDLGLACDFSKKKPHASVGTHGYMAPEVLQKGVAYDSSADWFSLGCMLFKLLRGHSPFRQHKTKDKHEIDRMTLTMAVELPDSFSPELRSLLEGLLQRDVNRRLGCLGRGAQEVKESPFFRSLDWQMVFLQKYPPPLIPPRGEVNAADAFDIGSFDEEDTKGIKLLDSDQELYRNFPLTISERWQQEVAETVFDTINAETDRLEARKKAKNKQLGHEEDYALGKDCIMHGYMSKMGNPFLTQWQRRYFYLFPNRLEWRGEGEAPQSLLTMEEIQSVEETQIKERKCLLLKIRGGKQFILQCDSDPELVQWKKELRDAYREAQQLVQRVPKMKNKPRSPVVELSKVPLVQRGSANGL
Sequence of MOP, GRK2 (P42866 whole entry): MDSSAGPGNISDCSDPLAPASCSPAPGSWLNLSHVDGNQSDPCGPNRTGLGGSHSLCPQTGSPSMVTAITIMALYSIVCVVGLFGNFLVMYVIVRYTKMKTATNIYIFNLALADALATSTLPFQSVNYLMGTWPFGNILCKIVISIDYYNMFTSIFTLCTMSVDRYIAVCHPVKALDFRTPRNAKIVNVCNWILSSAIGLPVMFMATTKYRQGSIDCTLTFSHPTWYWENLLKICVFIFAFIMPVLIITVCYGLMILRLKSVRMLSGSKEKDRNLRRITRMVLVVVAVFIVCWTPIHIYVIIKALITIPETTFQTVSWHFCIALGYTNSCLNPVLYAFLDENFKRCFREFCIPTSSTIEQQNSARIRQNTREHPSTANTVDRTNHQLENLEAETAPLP
T1 sequence (P34972 whole entry): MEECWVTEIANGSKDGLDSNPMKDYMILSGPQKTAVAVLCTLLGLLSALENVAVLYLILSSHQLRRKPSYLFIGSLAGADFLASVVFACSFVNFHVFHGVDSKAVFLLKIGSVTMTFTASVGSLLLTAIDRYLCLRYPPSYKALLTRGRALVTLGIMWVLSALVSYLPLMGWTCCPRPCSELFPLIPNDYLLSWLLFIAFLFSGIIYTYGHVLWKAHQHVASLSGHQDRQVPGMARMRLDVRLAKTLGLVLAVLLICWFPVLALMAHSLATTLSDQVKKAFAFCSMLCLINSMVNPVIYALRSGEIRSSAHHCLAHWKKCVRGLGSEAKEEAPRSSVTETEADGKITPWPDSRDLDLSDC
T2 sequence (P42866 whole entry): as the sequence (P42866 whole entry) above

SMILES: C[C@@H](NC(=O)[C@@H](N)Cc1ccc(O)cc1)C(=O)NCC(=O)N(C)[C@@H](Cc1ccccc1)C(=O)NCCO [DAMGO, [D-Ala^2,N-MePhe^4,Gly-ol]-enkephalin]
- pEC50 GIRK [1]: 8.9
- values normalised to 1µM DAMGO, mean ([1]; 1pM ligand): 5.028
- values normalised to 1µM DAMGO (individual values) ([1]; 1pM ligand): 5.593 and 7.859 and 3.46 and 5.717 and 7.582 and 8.1092 and 3.374 and 6.042 and 4.849 and 0.5787 and 7.292 and 5.88 and 8.096 and 0.05434 and -0.3462 and 6.3053
- values normalised to 1µM DAMGO, mean ([1]; 10pM ligand): 7.472
- values normalised to 1µM DAMGO (individual values) ([1]; 10pM ligand): 15.49 and 11.6111 and 4.26 and 2.279 and 5.498 and 3.993 and 8.348 and 9.984 and 18.2069 and 4.03 and 10.8569 and 5.742 and 4.237 and 3.526 and 0.4892 and 11.0085
- values normalised to 1µM DAMGO, mean ([1]; 100pM ligand): 9.137
- values normalised to 1µM DAMGO (individual values) ([1]; 100pM ligand): 16.8969 and 12.3538 and 1.282 and -0.5086 and 23.733 and 7.982 and 12.165 and 15.3952 and 18.3102 and 7.555 and 2.414 and 2.004 and 6.703 and 3.838 and 4.846 and 11.227
- values normalised to 1µM DAMGO, mean ([1]; 1nM ligand): 50.7802
- values normalised to 1µM DAMGO (individual values) ([1]; 1nM ligand): 57.1798 and 57.3562 and 19.6942 and 27.9023 and 58.4493 and 49.8324 and 71.4212 and 70.7134 and 62.495 and 60.2954 and 56.8628 and 49.7728 and 53.0466 and 27.1278 and 35.6907 and 54.6435
- values normalised to 1µM DAMGO, mean ([1]; 5nM ligand): 92.3187
- values normalised to 1µM DAMGO, mean ([1]; 10nM ligand): 95.5035
- values normalised to 1µM DAMGO, mean ([1]; 50nM ligand): 101.174
- values normalised to 1µM DAMGO, mean ([1]; 100nM ligand): 99.3452
- values normalised to 1µM DAMGO (individual values) ([1]; 100nM ligand): 100.4 and 100.34 and 112.066 and 111.922
- values normalised to 1µM DAMGO, mean ([1]; 0.5µM ligand): 99.405
- values normalised to 1µM DAMGO (individual values) ([1]; 0.5µM ligand): 99.2581 and 100.369 and 110.848 and 112.015 and 90.6195 and 92.807 and 98.2073 and 99.2624 and 100.349 and 111.9 and 110.485 and 68.4902 and 89.9215 and 98.2442 and 106.456 and 101.247
- DAMGO 1µM signal in RFU ([1]; 1µM DAMGO, one value per experiment): 38.399 RFU and 40.2317 RFU and 34.405 RFU and 46.8468 RFU and 42.8267 RFU and 41.1246 RFU and 35.6065 RFU and 41.2536 RFU
- values normalised to 1µM DAMGO, mean ([1]; 1µM ligand): 100
- values normalised to 1µM DAMGO (individual values) ([1]; 1µM ligand): 102.126 and 101.322 and 95.8603 and 104.14 and 98.9994 and 101.001 and 101.569 and 98.4312 and 97.8738 and 109.455 and 90.5448 and 97.309 and 102.691 and 100.145 and 99.8548 and 98.6775
- GRK2 recruitment, raw value (MOP, GRK2; agonist 0.01 µM): 1.0365 and 0.9786 and 1.1651 and 0.7672
- GRK2 recruitment, raw value (MOP, GRK2; agonist 0.1 µM): 1.7391 and 1.2836 and 1.7883 and 1.2791
- GRK2 recruitment, raw value (MOP, GRK2; agonist 1 µM): 3.3164 and 2.1606 and 3.0001 and 2.3217
- GRK2 recruitment, normalised (MOP, GRK2; agonist 1 µM): 102.84% and 51.53% and 88.80% and 58.68%
- GRK2 recruitment, raw value (MOP, GRK2; agonist 10 µM): 3.4288 and 3.1599 and 2.7372 and 3.6836
- GRK2 recruitment, normalised (MOP, GRK2; agonist 10 µM): 107.83% and 95.89% and 77.13% and 119.15%
- GRK2 recruitment, raw value (MOP, GRK2; agonist 100 µM): 3.2449 and 4.0099 and 3.3544 and 3.8787
- GRK2 recruitment, normalised (MOP, GRK2; agonist 100 µM): 99.67% and 133.63% and 104.53% and 127.81%

SMILES: CCCCCCC(C)(C)c1ccc([C@@H]2C[C@H](O)CC[C@H]2CCCO)c(O)c1 [CP55940]
- OD405 min pS335/pS336-CB2 (CB2 cannabinoid receptor [2]): 0.38
- pS335/pS336 (CB2 Phosphorylation Assay) (CB2 cannabinoid receptor [2]; CP55940 1e-6 µM): 0.4195 and 0.458 and 0.3421
- pS335/pS336 (CB2 Phosphorylation Assay) (CB2 cannabinoid receptor [2]; CP55940 1e-5 µM): 0.3429 and 0.4547 and 0.4707 and 0.3409 and 0.3589 and 0.38
- pS335/pS336 (CB2 Phosphorylation Assay) (CB2 cannabinoid receptor [2]; CP55940 0.0001 µM): 0.3452 and 0.3952 and 0.4236 and 0.425 and 0.3513 and 0.3869
- pS335/pS336 (CB2 Phosphorylation Assay) (CB2 cannabinoid receptor [2]; CP55940 0.001 µM): 0.3318 and 0.3924 and 0.4101 and 0.3997 and 0.3583
- pS335/pS336 (CB2 Phosphorylation Assay) (CB2 cannabinoid receptor [2]; CP55940 0.1 µM): 0.8954
- pS335/pS336 (CB2 Phosphorylation Assay) (CB2 cannabinoid receptor [2]; CP55940 1 µM): 1.0018 and 0.9312 and 1.0017 and 0.8185
- pS335/pS336 (CB2 Phosphorylation Assay) (CB2 cannabinoid receptor [2]; CP55940 10 µM): 0.9538 and 0.8534
- OD405 max pT338/pT339-CB2 (CB2 cannabinoid receptor [3]): 1.74
- pT338/pT339-CB2 phosphorylation (OD405) (CB2 cannabinoid receptor [3]; CP55940 0.01 µM): 0.418 and 0.427 and 0.4081 and 0.4835 and 0.513
- pT338/pT339-CB2 phosphorylation (OD405) (CB2 cannabinoid receptor [3]; CP55940 0.1 µM): 0.4372 and 0.4959 and 0.4415 and 0.4741 and 0.5035 and 0.468
- pT338/pT339-CB2 phosphorylation (OD405) (CB2 cannabinoid receptor [3]; CP55940 0.3 µM): 0.4559 and 0.4962 and 0.7064 and 0.6812
- pT338/pT339-CB2 phosphorylation (OD405) (CB2 cannabinoid receptor [3]; CP55940 1 µM): 0.467 and 0.4332 and 0.3917 and 0.4407 and 0.4084 and 0.4786
- pT338/pT339-CB2 phosphorylation (OD405) (CB2 cannabinoid receptor [3]; CP55940 3 µM): 0.4766 and 0.4184 and 0.4965 and 0.6601
- pT338/pT339-CB2 phosphorylation (OD405) (CB2 cannabinoid receptor [3]; CP55940 10 µM): 1.4013 and 1.5745 and 1.5305
- pT338/pT339-CB2 phosphorylation (OD405) (CB2 cannabinoid receptor [3]; CP55940 30 µM): 1.5241
- pT338/pT339-CB2 phosphorylation (OD405) (CB2 cannabinoid receptor [3]; CP55940 100 µM): 1.603 and 1.5834 and 1.3626

SMILES: CN1CC[C@]23c4c5ccc(O)c4O[C@H]2[C@@H](O)C=C[C@H]3[C@H]1C5 [Morphine, morphine]
- values normalised to 1µM DAMGO, mean ([1]; 1pM ligand): 6.485
- values normalised to 1µM DAMGO, mean ([1]; 10pM ligand): 6.027
- values normalised to 1µM DAMGO, mean ([1]; 100pM ligand): 6.211
- values normalised to 1µM DAMGO, mean ([1]; 1nM ligand): 9.125
- values normalised to 1µM DAMGO, mean ([1]; 5nM ligand): 29.6678
- values normalised to 1µM DAMGO (individual values) ([1]; 5nM ligand): 45.7495 and 19.0875 and 13.0961 and 9.052 and 36.1933 and 47.9074 and 51.2561 and 57.2816 and 46.4485 and 43.1943 and 26.9461 and 14.2883 and 14.2724 and 18.5122 and 18.46 and 12.9399
- values normalised to 1µM DAMGO, mean ([1]; 10nM ligand): 57.2564
- values normalised to 1µM DAMGO (individual values) ([1]; 10nM ligand): 58.6156 and 56.0883 and 35.9476 and 44.5152 and 64.4335 and 68.3763 and 70.0077 and 70.5635 and 61.8308 and 50.7811 and 68.4527 and 63.2893 and 55.6505 and 50.3141 and 38.9941 and 58.2419
- values normalised to 1µM DAMGO, mean ([1]; 50nM ligand): 66.3769
- values normalised to 1µM DAMGO (individual values) ([1]; 50nM ligand): 62.166 and 62.2926 and 44.6191 and 54.7318 and 72.3421 and 70.8947 and 81.0497 and 84.3524 and 69.6407 and 82.417 and 82.3952 and 62.9287 and 75.1596 and 38.3592 and 49.3923 and 69.2894
- values normalised to 1µM DAMGO, mean ([1]; 100nM ligand): 74.2194
- values normalised to 1µM DAMGO (individual values) ([1]; 100nM ligand): 89.3793 and 68.637 and 62.5767 and 14.9163 and 86.9174 and 89.8616 and 87.7405 and 94.4167 and 90.0012 and 88.0147 and 94.1235 and 58.569 and 65.3044 and 67.2492 and 54.6739 and 75.1284
- values normalised to 1µM DAMGO, mean ([1]; 0.5µM ligand): 76.9579
- values normalised to 1µM DAMGO (individual values) ([1]; 0.5µM ligand): 87.9206 and 64.7531 and 55.8615 and 55.3841 and 81.7364 and 84.8283 and 97.4763 and 95.5436 and 86.95 and 86.0094 and 85.8902 and 63.7515 and 63.5249 and 73.9389 and 76.3702 and 71.3871
- values normalised to 1µM DAMGO, mean ([1]; 1µM ligand): 72.8983
- values normalised to 1µM DAMGO (individual values) ([1]; 1µM ligand): 75.501 and 68.3564 and 51.865 and 76.6338 and 75.1014 and 79.046 and 83.5821 and 81.3432 and 80.3317 and 85.1376 and 62.4253 and 66.1705 and 66.7508 and 75.1369 and 66.0921

SMILES: C[C@@H](NC(=O)[C@@H](N)Cc1ccc(O)cc1)C(=O)NCC(=O)N(C)[C@@H](Cc1ccccc1)C(=O)NCCO [[3H]DAMGO]
- Bmax (MOP; 25°C, 60 min): 2279 ± 19 fmol/mg protein
- saturation binding, mean, HEK293-MOP-HA (MOP; concentration 0.05 nM): 173.5
- saturation binding, mean, HEK293-MOP-HA (MOP; concentration 2.05 nM): 1520.4
- saturation binding, mean, HEK293-MOP-HA (MOP; concentration 2.57 nM): 1621.54
- saturation binding, mean, HEK293-MOP-HA (MOP; concentration 4.21 nM): 1763.3
- saturation binding, mean, HEK293-MOP-HA (MOP; concentration 5.23 nM): 2020.39
- saturation binding, mean, HEK293-native (WT-HEK293 cells; concentration 0.05 nM): 2.17
- saturation binding, mean, HEK293-native (WT-HEK293 cells; concentration 2.05 nM): 2.19
- saturation binding, mean, HEK293-native (WT-HEK293 cells; concentration 2.57 nM): 14.32
- saturation binding, mean, HEK293-native (WT-HEK293 cells; concentration 4.21 nM): 26.91
- saturation binding, mean, HEK293-native (WT-HEK293 cells; concentration 5.23 nM): 41.11
